This test concerns the target human activated kallikrein enzyme (Homo sapiens (Human), UniProt P03952). The test is described as follows: Plasma kallikrein inhibition assay with fluorogenic peptide substrate, 500 pM activated kallikrein format. The note with it: 500 pM activated kallikrein; 300 uM Pro-Phe-Arg-7-amido-4-methylcoumarin substrate; 30 min preincubation, 10 min reaction at RT; read-out: Primary Dose Response Assay: Average EC50. Type of test: biochemical. In a few lines: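 Pro-Phe-Arg-7-amido-4-methylcoumarin substrate (300 uM) started reactions after a 30 min RT enzyme–inhibitor preincubation. This format used 500 pM activated human kallikrein in Tris pH 7.5 buffer with EDTA, NaCl, PEG-400 and Triton X-100. AMC fluorescence (380/460 nm) was measured after 10 min at RT.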

Molecules are shown by their SMILES.

human activated kallikrein enzyme, sequence (P03952 391-638): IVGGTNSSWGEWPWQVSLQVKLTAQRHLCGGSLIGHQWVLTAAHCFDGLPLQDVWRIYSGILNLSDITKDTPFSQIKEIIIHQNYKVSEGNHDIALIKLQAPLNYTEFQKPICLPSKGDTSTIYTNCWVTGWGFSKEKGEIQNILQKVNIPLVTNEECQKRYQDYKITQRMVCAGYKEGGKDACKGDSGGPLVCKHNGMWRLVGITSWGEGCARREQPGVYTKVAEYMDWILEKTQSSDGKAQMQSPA
human activated kallikrein enzyme, sequence (P03952 20-390 partner): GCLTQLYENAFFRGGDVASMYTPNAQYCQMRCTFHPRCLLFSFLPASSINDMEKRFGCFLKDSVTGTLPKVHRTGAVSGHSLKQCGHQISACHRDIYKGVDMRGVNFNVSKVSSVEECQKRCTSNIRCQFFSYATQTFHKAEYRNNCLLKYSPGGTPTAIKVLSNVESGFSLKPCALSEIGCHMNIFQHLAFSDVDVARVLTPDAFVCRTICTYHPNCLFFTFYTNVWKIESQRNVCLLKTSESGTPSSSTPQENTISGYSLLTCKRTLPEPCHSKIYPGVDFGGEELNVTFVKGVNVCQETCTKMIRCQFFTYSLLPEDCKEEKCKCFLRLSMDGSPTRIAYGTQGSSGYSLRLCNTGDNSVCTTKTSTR

In the case of `COc1ccc(-n2cnnn2)c(CNC(=O)c2cn3c(n2)CCC3c2cn3cc(C4CC4)ccc3n2)c1F` (stereo not shown) [Example I-22, 5-(6-cyclopropylimidazo[1,2-a]pyridin-2-yl)-N-(2-fluoro-3-methoxy-6-(1H-tetrazol-1-yl)benzyl)-6,7-dihydro-5H-pyrrolo[1,2-a]imidazole-2-carboxamide], the EC50 (commonly the concentration that produces a half-maximal response) was at most 1 nM.

In the case of `Cc1cc(C(=N)N)cc(C)c1CNC(=O)c1cn(Cc2cn3cc(C4CC4)cc(C(=O)O)c3n2)nn1` [Example I-111, 2-((4-((4-carbamimidoyl-2,6-dimethylbenzyl)carbamoyl)-1H-1,2,3-triazol-1-yl)methyl)-6-cyclopropylimidazo[1,2-a]pyridine-8-carboxylic Acid], the concentration giving a half-maximal response (EC50) was at most 1 nM.

For the compound `Nc1nnc(CNC(=O)c2cn(Cc3cn4cc(C5CC5)ccc4n3)nn2)s1` [Example I-20, N-((5-amino-1,3,4-thiadiazol-2-yl)methyl)-1-((6-cyclopropylimidazo[1,2-a]pyridin-2-yl)methyl)-1H-1,2,3-triazole-4-carboxamide], the EC50 lay in the range of 2000 to 7100 nM.

Regarding `COc1ccc(-n2ccnc2)c(CNC(=O)c2cn(Cc3cn4cc(C5CC5)ccc4n3)nn2)c1F` [Example I-104, 1-((6-cyclopropylimidazo[1,2-a]pyridin-2-yl)methyl)-N-(2-fluoro-6-(1H-imidazol-1-yl)-3-methoxybenzyl)-1H-1,2,3-triazole-4-carboxamide], the half-maximal effective concentration (EC50) was in the range of 1 to 10 nM.

In the case of `COc1ccc(-n2cnnn2)c(CNC(=O)c2cnc3n2C(c2cn4cc(C5CC5)ccc4n2)CC3)c1F` (stereo not shown) [Example I-24, 5-(6-cyclopropylimidazo[1,2-a]pyridin-2-yl)-N-(2-fluoro-3-methoxy-6-(1H-tetrazol-1-yl)benzyl)-6,7-dihydro-5H-pyrrolo[1,2-a]imidazole-3-carboxamide], the EC50 fell in the range of 2000 to 7100 nM.

Take `Nc1ncc(CNC(=O)c2cn(Cc3cn4cc(C5CC5)ccc4n3)nn2)s1` [Example I-18, N-((2-aminothiazol-5-yl)methyl)-1-((6-cyclopropylimidazo[1,2-a]pyridin-2-yl)methyl)-1H-1,2,3-triazole-4-carboxamide]: the EC50 lay in the range of 100 to 2000 nM.

In the case of `COc1ccc(F)c(CNC(=O)c2cn(Cc3cn4cc(C5CC5)cc(CN)c4n3)nn2)c1F` [Example I-13, 1-((8-(aminomethyl)-6-cyclopropylimidazo[1,2-a]pyridin-2-yl)methyl)-N-(2,6-difluoro-3-methoxybenzyl)-1H-1,2,3-triazole-4-carboxamide], the concentration for a half-maximal effect (EC50) lay within 1 to 10 nM.

For `Nc1nccc2c1CCC2NC(=O)c1cn(Cc2cn3cc(C4CC4)ccc3n2)nn1` (stereo not shown) [Example I-23, N-(1-amino-6,7-dihydro-5H-cyclopenta[c]pyridin-5-yl)-1-((6-cyclopropylimidazo[1,2-a]pyridin-2-yl)methyl)-1H-1,2,3-triazole-4-carboxamide], the 50% effective concentration (EC50) was at most 1 nM.

Consider `O=C(NCc1ccccc1)c1cn(Cc2cn3cc(C4CC4)ccc3n2)nn1` [Example I-60, N-benzyl-1-((6-cyclopropylimidazo[1,2-a]pyridin-2-yl)methyl)-1H-1,2,3-triazole-4-carboxamide], for which the EC50 was above 7100 nM.

In the case of `O=C(NCc1cc2c(cn1)CCO2)c1cn(Cc2cn3cc(C4CC4)ccc3n2)nn1` [Example I-141, 1-((6-cyclopropylimidazo[1,2-a]pyridin-2-yl)methyl)-N-((2,3-dihydrofuro[3,2-c]pyridin-6-yl)methyl)-1H-1,2,3-triazole-4-carboxamide], the EC50 was in the range of 10 to 100 nM.

For the compound `O=C(NCc1c(N2CC3(COC3)C2)ccc(Cl)c1F)c1cnn(Cc2cn3cc(C4CC4)ccc3n2)c1` [Example I-114, N-(3-chloro-2-fluoro-6-(2-oxa-6-azaspiro[3.3]heptan-6-yl)benzyl)-1-((6-cyclopropylimidazo[1,2-a]pyridin-2-yl)methyl)-1H-pyrazole-4-carboxamide], the EC50 lay within 100 to 2000 nM.

As to `COc1ccc(-n2cc(Cl)nn2)c(CNC(=O)c2cn(Cc3cn4cc(C5CC5)ccc4n3)nn2)c1F` [Example I-1, N-(6-(4-chloro-1H-1,2,3-triazol-1-yl)-2-fluoro-3-methoxybenzyl)-1-((6-cyclopropylimidazo[1,2-a]pyridin-2-yl)methyl)-1H-1,2,3-triazole-4-carboxamide], the EC50 is at most 1 nM.

For the compound `COc1ccc(-c2cn3ccccc3n2)c(CNC(=O)c2cn(Cc3cn4cc(C5CC5)ccc4n3)nn2)c1F` [Example I-70, 1-((6-cyclopropylimidazo[1,2-a]pyridin-2-yl)methyl)-N-(2-fluoro-6-(imidazo[1,2-a]pyridin-2-yl)-3-methoxybenzyl)-1H-1,2,3-triazole-4-carboxamide], the 50% effective concentration (EC50) was in the range of 10 to 100 nM.

In the case of `COc1ccc(-n2cnnn2)c(CNC(=O)c2cn(Cc3cn4cc(C5CC5)cc(CC5COC5)c4n3)nn2)c1F` [Example I-68, 1-((6-cyclopropyl-8-(oxetan-3-ylmethyl)imidazo[1,2-a]pyridin-2-yl)methyl)-N-(2-fluoro-3-methoxy-6-(1H-tetrazol-1-yl)benzyl)-1H-1,2,3-triazole-4-carboxamide], the half-maximal effective concentration (EC50) is at most 1 nM.

Take `O=C(NCc1cc2occc2cn1)c1cn(Cc2cn3cc(C4CC4)ccc3n2)nn1` [Example I-140, 1-((6-cyclopropylimidazo[1,2-a]pyridin-2-yl)methyl)-N-(furo[3,2-c]pyridin-6-ylmethyl)-1H-1,2,3-triazole-4-carboxamide]: the half-maximal effective concentration (EC50) fell in the range of 100 to 2000 nM.

For `COc1ccnc(CNC(=O)c2cnc3n2C(c2cn4cc(C5CC5)ccc4n2)CC3)c1F` (stereo not shown) [Example I-6, 5-(6-cyclopropylimidazo[1,2-a]pyridin-2-yl)-N-((3-fluoro-4-methoxypyridin-2-yl)methyl)-6,7-dihydro-5H-pyrrolo[1,2-a]imidazole-3-carboxamide], the EC50 is above 7100 nM.

Take `O=C(NCc1cc2c(cn1)CCCO2)c1cn(Cc2cn3cc(C4CC4)ccc3n2)nn1` [Example I-150, 1-((6-cyclopropylimidazo[1,2-a]pyridin-2-yl)methyl)-N-((3,4-dihydro-2H-pyrano[3,2-c]pyridin-7-yl)methyl)-1H-1,2,3-triazole-4-carboxamide]: the EC50 lay in the range of 100 to 2000 nM.

For the compound `O=C(NC1CCc2c(Cl)ccn3cnc1c23)c1cn(Cc2cn3cc(C4CC4)ccc3n2)nn1` (stereo not shown) [Example I-135, N-(6-chloro-8,9-dihydro-7H-imidazo[4,5,1-ij]quinolin-9-yl)-1-((6-cyclopropylimidazo[1,2-a]pyridin-2-yl)methyl)-1H-1,2,3-triazole-4-carboxamide], the EC50 lay in the range of 10 to 100 nM.

With `COc1ccc(-n2cnnn2)c(CNC(=O)c2cncn2Cc2cn3cc(C4CC4)ccc3n2)c1F` [Example I-59, 1-((6-cyclopropylimidazo[1,2-a]pyridin-2-yl)methyl)-N-(2-fluoro-3-methoxy-6-(1H-tetrazol-1-yl)benzyl)-1H-imidazole-5-carboxamide], the EC50 was above 7100 nM.

As for `O=C(NCc1cc2ccc(Cl)cc2s1)c1cn(Cc2cn3cc(C4CC4)ccc3n2)nn1` [Example I-77, N-((6-chlorobenzo[b]thiophen-2-yl)methyl)-1-((6-cyclopropylimidazo[1,2-a]pyridin-2-yl)methyl)-1H-1,2,3-triazole-4-carboxamide], the concentration giving a half-maximal response (EC50) is above 7100 nM.

In the case of `O=C(NCc1cc2cc[nH]c2cn1)c1cn(Cc2cn3cc(C4CC4)ccc3n2)nn1` [Example I-144, N-((1H-pyrrolo[2,3-c]pyridin-5-yl)methyl)-1-((6-cyclopropylimidazo[1,2-a]pyridin-2-yl)methyl)-1H-1,2,3-triazole-4-carboxamide], the EC50 was 1 to 10 nM.

Consider `COc1ccc(-n2cnnn2)c(CNC(=O)c2cn(Cc3cn4cc(C5CC5)cc(C(F)(F)F)c4n3)nn2)c1F` [Example I-93, 1-((6-cyclopropyl-8-(trifluoromethyl)imidazo[1,2-a]pyridin-2-yl)methyl)-N-(2-fluoro-3-methoxy-6-(1H-tetrazol-1-yl)benzyl)-1H-1,2,3-triazole-4-carboxamide], for which the EC50 was at most 1 nM.

`O=C(NCc1ccc2[nH]cc(Cl)c2c1)c1cn(Cc2cn3cc(C4CC4)ccc3n2)nn1` [Example I-65, N-((3-chloro-1H-indol-5-yl)methyl)-1-((6-cyclopropylimidazo[1,2-a]pyridin-2-yl)methyl)-1H-1,2,3-triazole-4-carboxamide]: the concentration for a half-maximal effect (EC50) was 10 to 100 nM.

On to `COc1ccc(-n2cnnn2)c(CNC(=O)c2ccn(Cc3cn4cc(C5CC5)ccc4n3)c2)c1F` [Example I-54, 1-((6-cyclopropylimidazo[1,2-a]pyridin-2-yl)methyl)-N-(2-fluoro-3-methoxy-6-(1H-tetrazol-1-yl)benzyl)-1H-pyrrole-3-carboxamide], for which the EC50 is at most 1 nM.

For the compound `CCOC(=O)c1cc(C2CC2)cn2cc(Cn3cc(C(=O)NCc4c(C)cc(C(=N)N)cc4C)nn3)nc12` [Example I-112, ethyl 2-((4-((4-carbamimidoyl-2,6-dimethylbenzyl)carbamoyl)-1H-1,2,3-triazol-1-yl)methyl)-6-cyclopropylimidazo[1,2-a]pyridine-8-carboxylate], the EC50 is at most 1 nM.

For `COc1ccc(-c2cn[nH]c2)c(CNC(=O)c2cn(Cc3cn4cc(C5CC5)ccc4n3)nn2)c1F` [Example I-67, 1-((6-cyclopropylimidazo[1,2-a]pyridin-2-yl)methyl)-N-(2-fluoro-3-methoxy-6-(1H-pyrazol-4-yl)benzyl)-1H-1,2,3-triazole-4-carboxamide], the 50% effective concentration (EC50) lay within 1 to 10 nM.

As to `COc1ccc(-n2cnnn2)c(CNS(=O)(=O)c2cnn(Cc3cn4cc(C5CC5)ccc4n3)c2)c1F` [Example I-45, 1-((6-cyclopropylimidazo[1,2-a]pyridin-2-yl)methyl)-N-(2-fluoro-3-methoxy-6-(1H-tetrazol-1-yl)benzyl)-1H-pyrazole-4-sulfonamide], the EC50 lay within 1 to 10 nM.

As for `COc1ccc(-c2nnco2)c(CNC(=O)c2cn(Cc3cn4cc(C5CC5)ccc4n3)nn2)c1F` [Example I-97, 1-((6-cyclopropylimidazo[1,2-a]pyridin-2-yl)methyl)-N-(2-fluoro-3-methoxy-6-(1,3,4-oxadiazol-2-yl)benzyl)-1H-1,2,3-triazole-4-carboxamide], the EC50 lay in the range of 10 to 100 nM.
